In patent US12076342B2, “Method for generating progenitor t cells from stem and/or progenitor cells and use of same” (THE GOVERNING COUNCIL OF THE UNIVERSITY OF TORONTO, priority 2016, dated 2024):

How the values were obtained:
[1] = tested on: double negative (DN; CD4− CD8−) thymocytes; test: DL4-Fc ligand binding to thymocytes
Description: Progenitor T cell development in the thymus is characterized by four sequential stages commonly referred to as DN1, DN2, DN3 and DP (DN=double negative and DP=double positive for CD4 and CD8 expression). An ideal defined progenitor T cell differentiation assay should aim to support the expansion of DN3 T cells that are exclusively committed to the T lymphoid lineage. […] Conventional in vitro T cell differentiation is carried out on an OP9 stromal feeder layer in serum-containing medium. The obvious first step in developing a defined assay for T cell differentiation is to establish conditions that eliminate the requirements for both serum and feeders. To replace the OP9 feeder layer, DL4-Fc protein was generated and the purity and functionality of the ligand to bind DN T cells and not DP T cells was verified, as these cell types differentially express the Notch-1 receptor (FIGS. 1a-c). […] Cultures were re-fed after four days and analyzed for progenitor T cell surface markers after seven days (FIG. 2a). Parallel cultures were carried out on untreated surfaces (negative control) and OP9-DL4 stromal co-culture (positive control based on which SCF, Flt3L and IL-7 supplementation concentrations were determined^9). […] The level of lineage skewing to non-T cell fates was also quantified in the absence of Notch ligand in order to assess the default cell differentiation supported by all medium types.

[2] = tested on: sorted sca1+ckit+ fetal-liver HSPCs; test: Defined T cell differentiation assay on adsorbed ligand, flow cytometry; assay type: cell-based, mouse
Description: FIG. 2a: Schematic for 2D coated DL4 assay, in which sorted E13.5 sca1+ckit+ fetal-liver HSPCs are seeded on coated DL4 ligand in standard 96-well flat bottom plates at 1000 cells/well density in 200 μl test media containing cytokines 25 ng/mL SCF, 5 ng/mL Flt3L and 1 ng/mL IL7; cells are re-fed on day 4 with fresh media containing cytokines; on day 7, cells are assayed for surface marker expression using flow cytometry.
Commercially available DL4-Fc was purchased and used for experiments from Sino Biologicals (Cedarlane Labs, Burlington, Ontario, Canada) or manufactured in-house as described below. DL4-Fc was diluted in chilled phosphate-buffered saline (PBS) at 10 μg/mL or […] and 50 μL/well was coated in standard tissue-culture 96-well plates overnight at 4° C. Wells were washed once with PBS prior to seeding cells to remove any unbound ligand from the wells. For certain experiments, wells were also coated overnight with 50 μL/well PBS containing DL4-Fc and VCAM-1-Fc (R&D) or fibronectin (Sigma) at concentrations described herein.
Sorted sca1+ckit+ HSPCs were cultured at 1000 cells/well (corresponding to 3.1×10^3 cells/cm^2) in DL4-coated 96-well plates in serum-free Iscove modified Dulbecco medium (Gibco, Rockville, MD) with 20% bovine serum albumin, insulin, and transferrin serum substitute (BIT; Stemcell Technologies), 1% GlutaMAX™ (Gibco) and 1 μg/mL low-density lipoproteins (Calbiochem, La Jolla, CA) [IMDM+BIT]. For positive control cultures, OP9 serum medium was used, composed of αMEM medium (Gibco) and 16% FBS (Hyclone™, GE Health). Serum-free αMEM+BIT medium was prepared exactly as IMDM+BIT medium except using αMEM (Gibco) as the base medium. OP9 serum medium, αMEM+BIT or IMDM+BIT serum free medium was added at 200 μL/well supplemented with 25 ng/mL Stem Cell Factor (SCF; R&D Systems, Minneapolis, MN), 5 ng/mL FMS-like Tyrosine Kinase 3 Ligand (Flt3L; R&D Systems) and 1 ng/mL Interleukin-7 (IL-7; R&D Systems) with a 50% medium exchange step at day 4 containing 2-fold concentrated cytokines as described previously^9. Design of Experiment (DOE) in silico modeling was performed using Design-Expert® (v10) using response surface method to investigate the combinatorial desirability of different concentrations of SCF, Flt3L and IL-7 for maximizing DN3 T-cell yield and minimizing the volume of IMDM+BIT medium. After DOE optimization, IMDM+BIT serum-free medium was added at 50 μL/well supplemented with 50 ng/mL SCF (R&D Systems), 10 ng/mL Flt3L (R&D Systems) and 10 ng/mL IL-7 (R&D Systems) unless described otherwise in the text with no medium exchange for the length of the assay. For the candidate factor screening in serum-free IMDM+BIT medium, the following proteins or small molecules were used at the concentrations listed: JAK inhibitor I (50 nM; EMD Millipore), IL-11 (10, 50, and 100 ng/mL; R&D Systems), IL-6 (10, 50, and 100 ng/mL; R&D Systems), IL-6R (100 ng/mL; R&D Systems), Ccl25 (1.5 μg/mL; R&D Systems), IL-7 (50, 100, and 200 ng/mL; R&D Systems), SDF1α (Cxcl12; 200 ng/mL; R&D Systems), and Leukemia Inhibitory Factor (LIF; 0.1, 1, and 10 ng/mL; EMD Millipore).
Surface marker staining was performed with conjugated rat anti-mouse antibodies (BD Biosciences, San Jose, CA, Table 1). All samples were analyzed on a FACSCanto™ or FACS LSRFortessa™ flow cytometer (BD Biosciences). At day 7 of culture, cells were lifted off the plate with multiple HF rinses, stained at 1:400 dilution with antibodies against CD45, CD25, CD44, CD90, CD11 b and CD19 for 20 minutes on ice. Human progenitor T-cells were stained at 1:100 dilution with antibodies against CD34, CD7, CD5 and CD45RA. Integrin expression was analyzed using antibodies against α4, β1, and β7 integrin subunits on Sca-1+cKit+ mouse HSPCs and CD34+ human umbilical blood cells. […]

[3] = tested on: human umbilical cord blood-derived CD34+ HSPCs; test: Human CD34+ HSPC progenitor T cell differentiation on coated plates; assay type: cell-based; details: serum-free IMDM+BIT
Description: For human HSPC culture, umbilical cord blood samples were collected from consenting donors according to ethically approved procedures at Mount Sinai Hospital. CD34+ cells were isolated from the red blood cell (RBC)-lysed cord blood fraction using the EasySep™ Human CD34 Positive Selection Kit (Stemcell Technologies) according to the manufacturer's instructions. Flow cytometry was performed after every enrichment to ensure CD34 frequencies were greater than 95%. CD34+ HSPCs were cultured for 14 days on DL4 and VCAM-1 coated 96-well plates at higher seeding densities of 12,500 HSPCs/cm^2 (corresponding to 4000 cells/well). One complete medium exchange was performed at day 7 of culture and cells were returned to the same DL4 and VCAM-1 coated plates. For certain experiments, DL4-Fc was coated alone or with RetroNectin® (Takara Shuzo) or fibronectin (Sigma Aldrich) as described in the text. CD34+ cells were cultured in serum-free Iscove modified Dulbecco medium (Gibco) with 20% bovine serum albumin, insulin, and transferrin serum substitute (BIT; Stemcell Technologies), 1% GlutaMAX™ (Gibco) and 1 μg/mL low-density lipoproteins (Calbiochem). The medium was added at 50 μL/well supplemented with 100 ng/mL SCF (R&D Systems, Minneapolis, MN), 100 ng/mL Flt3L (R&D Systems), 100 ng/mL Tpo (R&D Systems) and 100 ng/mL IL-7 (R&D Systems).
Surface marker staining was performed with conjugated rat anti-mouse antibodies (BD Biosciences, San Jose, CA, Table 1). All samples were analyzed on a FACSCanto™ or FACS LSRFortessa™ flow cytometer (BD Biosciences). At day 7 of culture, cells were lifted off the plate with multiple HF rinses, stained at 1:400 dilution with antibodies against CD45, CD25, CD44, CD90, CD11 b and CD19 for 20 minutes on ice. […] Integrin expression was analyzed using antibodies against α4, β1, and β7 integrin subunits on Sca-1+cKit+ mouse HSPCs and CD34+ human umbilical blood cells. […] Flow data was analyzed and batch processed using FlowJo® software and further analyzed in Python (version 2.7.10).

Substance: DL4: Notch ligand Delta-like-4 extracellular domain fused to the Fc region of human IgG1
- binding to DN vs. DP thymocytes [1]: binding double negative (DN; CD4− CD8−) and not double positive (DP, CD4+CD8+) thymocytes
- DN3 frequency at 20 μg/mL immobilized ligand ([2]; 20 μg/mL immobilized, no soluble ligand, day 7): generated DN3 cells at equivalent frequencies as in the 10 μg/mL coated DL4 control
- minimum concentration of adsorbed DL4 that supported DN3 cell generation ([2]; IMDM+BIT serum-free medium, 7 days of culture): 7.5 µg/mL
- generation of CD7+CD34+ cells ([3]; DL4 alone): can generate CD7+CD34+ cells
- generation of later stage progenitor T cells from CD34+ HSPCs ([3]; 9 or 14 days, matrix proteins in conjunction with DL4): insufficient to drive these progenitor cells to later stages of T cell development
